Results from patent US20110184018A1, “METHOD FOR TREATING PERIPHERAL NEUROPATHIC PAIN” (LOHOCLA RESEARCH CORPORATION, priority 2005, published 2011).
Where two headings read alike, the source gives them in different places.

Experiments:
[1] = molecular target: voltage sensitive sodium channel (neurotoxin receptor Site 2); assay: [3H]BTX binding assay; conditions: rat cortical synaptosomes
[2] = molecular target: rat brain type IIA Na+ channel (Nav1.2) (Rattus norvegicus, UniProt P04775); assay: Whole-cell patch clamp recordings of Na+ currents in CNaIIA-1 cells; format: cell-based; conditions: fit of shift of inactivation curve
Chain of rat brain type IIA Na+ channel (Nav1.2) (P04775 whole entry): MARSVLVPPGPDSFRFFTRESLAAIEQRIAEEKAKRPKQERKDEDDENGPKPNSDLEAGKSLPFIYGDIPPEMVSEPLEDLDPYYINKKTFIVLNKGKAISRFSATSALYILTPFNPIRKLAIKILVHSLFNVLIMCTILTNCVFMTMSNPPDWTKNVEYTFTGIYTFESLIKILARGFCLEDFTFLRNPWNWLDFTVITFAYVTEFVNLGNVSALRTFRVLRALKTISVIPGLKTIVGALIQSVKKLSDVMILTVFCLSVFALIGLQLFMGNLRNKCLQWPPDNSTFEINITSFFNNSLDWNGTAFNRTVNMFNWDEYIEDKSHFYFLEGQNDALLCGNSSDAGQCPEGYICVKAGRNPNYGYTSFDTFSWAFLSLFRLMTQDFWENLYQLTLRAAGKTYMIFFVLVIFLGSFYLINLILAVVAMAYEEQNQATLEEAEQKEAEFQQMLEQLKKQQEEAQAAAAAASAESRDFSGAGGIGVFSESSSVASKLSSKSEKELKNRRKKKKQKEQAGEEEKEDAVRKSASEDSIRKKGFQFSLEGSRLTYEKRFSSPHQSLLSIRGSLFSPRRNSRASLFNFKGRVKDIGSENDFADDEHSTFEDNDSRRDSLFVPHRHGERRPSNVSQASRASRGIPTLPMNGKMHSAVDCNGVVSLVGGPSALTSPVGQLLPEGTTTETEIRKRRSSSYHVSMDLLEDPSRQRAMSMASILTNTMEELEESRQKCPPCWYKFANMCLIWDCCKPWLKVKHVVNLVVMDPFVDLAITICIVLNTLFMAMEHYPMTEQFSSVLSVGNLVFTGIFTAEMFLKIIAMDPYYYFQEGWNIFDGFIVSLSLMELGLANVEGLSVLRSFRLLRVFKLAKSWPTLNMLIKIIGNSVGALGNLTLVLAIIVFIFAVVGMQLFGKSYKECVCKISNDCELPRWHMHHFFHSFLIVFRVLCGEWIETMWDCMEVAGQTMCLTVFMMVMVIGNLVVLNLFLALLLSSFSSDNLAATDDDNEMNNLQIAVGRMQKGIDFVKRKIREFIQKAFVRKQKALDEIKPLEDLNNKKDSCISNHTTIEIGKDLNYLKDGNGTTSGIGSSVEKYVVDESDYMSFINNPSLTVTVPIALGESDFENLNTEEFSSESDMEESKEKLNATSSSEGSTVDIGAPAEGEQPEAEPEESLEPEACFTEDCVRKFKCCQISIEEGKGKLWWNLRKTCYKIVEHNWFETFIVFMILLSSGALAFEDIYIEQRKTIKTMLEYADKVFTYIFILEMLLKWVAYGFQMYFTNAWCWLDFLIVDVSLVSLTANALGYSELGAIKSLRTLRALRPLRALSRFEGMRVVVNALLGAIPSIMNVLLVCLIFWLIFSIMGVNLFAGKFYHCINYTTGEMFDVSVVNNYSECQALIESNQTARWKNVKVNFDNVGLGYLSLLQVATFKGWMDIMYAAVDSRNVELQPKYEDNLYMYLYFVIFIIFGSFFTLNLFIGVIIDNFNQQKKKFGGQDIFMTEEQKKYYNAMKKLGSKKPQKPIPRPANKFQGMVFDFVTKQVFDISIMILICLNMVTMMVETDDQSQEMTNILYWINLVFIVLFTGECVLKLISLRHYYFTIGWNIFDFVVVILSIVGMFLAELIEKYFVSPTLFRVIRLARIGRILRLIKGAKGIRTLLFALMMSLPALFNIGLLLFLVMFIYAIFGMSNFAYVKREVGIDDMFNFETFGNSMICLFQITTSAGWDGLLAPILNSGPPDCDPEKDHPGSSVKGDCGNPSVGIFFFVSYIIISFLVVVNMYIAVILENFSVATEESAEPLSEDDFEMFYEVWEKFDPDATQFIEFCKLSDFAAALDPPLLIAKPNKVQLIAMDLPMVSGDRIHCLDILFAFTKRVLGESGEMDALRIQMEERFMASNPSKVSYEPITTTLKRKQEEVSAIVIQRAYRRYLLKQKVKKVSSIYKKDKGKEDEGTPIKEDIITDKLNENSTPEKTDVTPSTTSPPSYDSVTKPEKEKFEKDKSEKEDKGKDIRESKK

[3] = Plasma and brain levels after oral administration of DCUK-OEt; format: in vivo; conditions: rat, 200 mg/kg DCUK-OEt emulsion by oral gavage
Procedure: Oral administration has been the major route of drug administration for the treatment of many diseases. […] Groups of rats were administered 200 mg/kg DCUK-OEt prepared as an emulsion in gelatin:canola oil (50:50) by oral gavage and sacrificed at 0.25, 0.5, 1, 1.5, 2, 4, 6, and 8 hours following administration, in order to collect the blood and brains for analysis. Plasma and brain levels of DCUKA and DCUK-OEt were analyzed by liquid chromatographic separation and mass spectrometric detection. Orally administered DCUK-OEt was converted to DCUKA by plasma and brain carboxylesterases. Peak levels of plasma DCUK-OEt were reached by about 1 hour post-administration, and fell to low levels by about 2 hours. DCUKA plasma levels peaked at about 2 hours and then fell off slowly over the next 4 hours. Brain DCUK-OEt levels peak at about 1 hour post-administration.
Oral administration. Following overnight food deprivation, groups of 3 rats were administered 200 mg/kg DCUK-OEt by oral gavage (40 mg/mL DCUK-OEt at 5 mL/kg body weight). Groups of rats were anesthetized and sacrificed by decapitation at 0.25, 0.5, 1, 1.5, 2, 4, 6, and 8 hours post-administration. Trunk blood was collected into tubes containing K2EDTA anticoagulant and brains were removed, washed thoroughly with 0.9% NaCl, and frozen on dry ice. Blood samples were centrifuged at 4000 rpm for 10 minutes. Plasma supernatant was removed and frozen at −80° C. until the time of the assay.
Liquid chromatographic-mass spectrometric determination of plasma and brain DCUKA and DCUK-OEt levels. Rat plasma sample preparation involved a simple protein precipitation procedure (100 μL plasma+250 μL acetonitrile containing 25 ng/mL of the internal standard, DCUK-OMe). After vortexing (5 minutes) and centrifugation (5000 g, 5 minutes, +4° C.), 200 μL of the supernatant was injected into the HPLC system and loaded onto the extraction column. Frozen brain tissue samples (about 0.5 g) were homogenized over liquid nitrogen using a mortar and pestle. The homogenized powder was transferred into the tubes containing 1.5 mL ice-cold 100% acetonitrile and 25 ng/mL DCUK-OMe (used as an internal standard). Following procedures were all performed on ice or at 4° C. The samples were further homogenized using an electric homogenizer for 30 seconds at 4° C. Subsequently, the tubes were placed into the ultrasonic bath for 30 minutes (on ice), and centrifuged afterwards at 1300 g for 10 minutes at 4° C. The supernatant was transferred into the HPLC tube. The pellet was re-extracted with 500 μL MeOH (containing 25 ng/mL DCUK-OMe), sonicated for 10 minutes, and centrifuged (10 minutes at 1300 g, 4° C.). The MeOH phase was combined with the acetonitrile solution from the first extraction step and 500 μL of the solution was directly injected into the HPLC system.
The two HPLC systems consisted of the following components (all series 1100, Agilent Technologies, Palo Alto, USA): HPLC I: G1312A binary pump, G1379A degasser; HPLC II: G1312A binary pump, and a G1316A column thermostat. A Sciex API 4000 triple-stage quadrupole mass spectrometer was used as detector (Applied Biosystems, Foster City, USA). The HPLC systems were connected via a 6-port column switching valve mounted on a step motor. The HPLC's switching valve and the mass spectrometer were controlled by the Analyst software (version 1.3.1., Applied Biosystems). […]

[4] = molecular target: T1, cannabinoid receptor 1 (CB1) (Homo sapiens, UniProt P21554); assay: Displacement of [3H]CP55940 from CB1 receptors expressed in HEK293 cells; format: binding; conditions: [3H]CP55940 displacement, Cheng-Prusoff
T1 construct: expressed in transfected cells; host or cells: HEK293 cells
T1 sequence (P21554 whole entry, species assumed): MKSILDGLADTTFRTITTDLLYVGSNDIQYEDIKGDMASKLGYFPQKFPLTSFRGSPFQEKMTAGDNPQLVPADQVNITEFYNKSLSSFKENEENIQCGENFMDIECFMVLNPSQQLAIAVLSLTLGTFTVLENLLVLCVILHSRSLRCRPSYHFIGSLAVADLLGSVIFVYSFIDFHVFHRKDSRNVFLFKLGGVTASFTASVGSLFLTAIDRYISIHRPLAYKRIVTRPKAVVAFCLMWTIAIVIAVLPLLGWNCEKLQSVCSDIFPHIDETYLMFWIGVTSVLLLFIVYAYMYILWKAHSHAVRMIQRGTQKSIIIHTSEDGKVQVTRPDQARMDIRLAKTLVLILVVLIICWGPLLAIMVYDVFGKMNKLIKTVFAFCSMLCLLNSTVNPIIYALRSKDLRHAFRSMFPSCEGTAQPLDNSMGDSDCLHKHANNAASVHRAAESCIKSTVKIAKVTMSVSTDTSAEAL
Excerpt: The cannabinoid receptor 1 (CB1) is a G-protein coupled receptor (GPCR), which can modulate the enzymatic activity of adenylyl cyclase (AC), inhibit calcium influx into neurons and increase neuronal potassium permeability. The CB1 receptors have been reported to be intimately involved in the progression and control of chronic pain. The CB1 receptors reportedly are involved in both the amelioration of anxiety and depression and may also be important in cognitive function and eating behavior. The interaction of a chemical entity with a CB1 receptor can be measured by the binding of selective radioligands to the native receptor or a CB1 receptor expressed in model cell systems. To ascertain the extent to which a non-radioactive ligand binds to a CB1 receptor the displacement of the radioactive CB1 selective ligand with DCUK-OEt was performed. The methods of assay and calculations for binding constants can be accessed, for example, on the PDSP website (pdsp(dot)med(dot)unc(dot)edu/indexR(dot)html). For binding of DCUK-OEt to the CB1 receptor, the displacement of the CB1 selective radioligand [^3H] CP55940 from CB1 receptors expressed in HEK293 cells was monitored. The log IC50 was determined from the displacement data, and the Ki values for DCUKA and DCUK-OEt were calculated using the Cheng-Prusoff equation.

[5] = Brain levels of DCUKA after intraperitoneal administration; format: in vivo; conditions: over at least 2 hours
Procedure: While the acid forms of the diarylureido-dihalokynurenic acid compounds are detectable in the brain after intravenous or intraperitoneal injection, “prodrug” versions (e.g., esters) were prepared to enhance transport across the blood-brain barrier. FIG. 6 illustrates the brain levels of DCUKA after administration of DCUKA itself, the DCUK-O-methyl ester and the DCUK-O-ethyl ester. […] Accordingly, ethyl esters of the diarylureido-dihalokynurenate compounds are particularly preferred (e.g., DCUK-OEt).

| SMILES | IC50 ([1]; depolarizing conditions (135 mM KCl), read-out: IC50 [3H]BTX binding under depolarizing conditions (value in parentheses)) [µM] | IC50 ([1]; none = no displacement at 100 μM, read-out: IC50 [3H]BTX binding) [µM] | Ki ([2]; read-out: KI, dissociation constant for inactivated states) [µM] | Kd ([2]; read-out: KR, dissociation constant for the resting state) [µM] | time of peak plasma level ([3]; analyte = label) | brain level at about 8 hours post-administration ([3]; analyte DCUKA) | Ki [4] [µM] | time at which plasma level fell to low levels [3] | time of peak brain level ([3]; analyte = label) | levels of DCUKA in the brain generated by the ester [5] |
| --- | --- | --- | --- | --- | --- | --- | --- | --- | --- | --- |
| O=C(O)c1cc(NC(=O)N(c2ccccc2)c2ccccc2)c2c(Cl)cc(Cl)cc2n1 [DCUKA, N,N-diphenyl-4-ureido-5,7-dichloro-2-carboxyquinoline] | 30 | 76 | 9.8 | 244 | about 2 hour | still elevated | > 10 |  |  |  |
| CCOC(=O)c1cc(NC(=O)N(c2ccccc2)c2ccccc2)c2c(Cl)cc(Cl)cc2n1 [DCUK-OEt, N,N-diphenyl-4-ureido-5,7-dichloro-2-carboxy quinoline ethyl ester] |  |  |  |  | about 1 hour |  | 7.4 | about 2 hours | about 1 hour | significantly improved levels of DCUKA in the brain |
